Biological target: GMPPNP-loaded KRAS G12C (Homo sapiens, UniProt P01116, G12C)
Test: KRAS G12C RAF Disruption Assay (HTRF)
Type: biochemical
Conditions: recombinant GMPPNP-loaded KRAS G12C (5 nM), 20 min with compound; GST-RAF1 RBD (9 nM); HTRF signal; read-out: KRASG12C RAF Disruption Assay (IC50)
How it was run: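 GMPPNP-loaded KRAS G12C (5 nM) was preincubated with compound for 20 min at room temperature in Tris pH 7.5 buffer with NaCl, MgCl2, DTT and BSA. GST-RAF1 RBD (9 nM) was added for 20 min, then SA-Tb (0.25 nM) for 3 h. IC50 was fitted from the HTRF 520/495 ratio.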

Chain of GMPPNP-loaded KRAS G12C (P01116 1-188 isoform P01116-2 G12C): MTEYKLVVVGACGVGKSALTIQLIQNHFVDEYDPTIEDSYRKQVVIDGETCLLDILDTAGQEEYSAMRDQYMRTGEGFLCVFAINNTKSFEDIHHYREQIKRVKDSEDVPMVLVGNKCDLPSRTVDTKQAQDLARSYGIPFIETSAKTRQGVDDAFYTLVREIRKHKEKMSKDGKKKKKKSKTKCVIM

SMILES	IC50 [nM]
N#CC[C@H]1CN(c2nc(OC[C@@]34CCCN3C[C@H](F)C4)nc3c(F)c(-c4cc(F)ccc4C(F)(F)F)ncc23)CCN1C(=O)/C(F)=C/c1ccccn1 [Example 44, 2-((S)-1-((Z)-2-fluoro-3-(pyridin-2-yl)acryloyl)-4-(8-fluoro-7-(5-fluoro-2-(trifluoromethyl)phenyl)-2-(((2R, 7aS)-2-fluorotetrahydro-1H-pyrrolizin-7a(5H)-yl)methoxy)pyrido[4,3-d]pyrimidin-4-yl)piperazin-2-yl)acetonitrile]	360
C#Cc1cccc2cccc(-c3ncc4c(N5CCN(C(=O)/C(F)=C/c6nccs6)CC5)nc(OC[C@@]56CCCN5C[C@H](F)C6)nc4c3F)c12 [Example 47, (Z)-1-(4-(7-(8-ethynylnaphthalen-1-yl)-8-fluoro-2-(((2R, 7aS)-2-fluorotetrahydro-1H-pyrrolizin-7a(5H)-yl)methoxy)pyrido[4,3-d]pyrimidin-4-yl)piperazin-1-yl)-2-fluoro-3-(thiazol-2-yl)prop-2-en-1-one]	100
Cn1ncc2cccc(-c3ncc4c(N5CCN(C(=O)/C(F)=C/c6nccs6)[C@@H](CC#N)C5)nc(OC[C@@]56CCCN5C[C@H](F)C6)nc4c3F)c21 [Example 52, 2-((S)-4-(8-fluoro-2-(((2R, 7aS)-2-fluorotetrahydro-1H-pyrrolizin-7a(5H)-yl)methoxy)-7-(1-methyl-1H-indazol-7-yl)pyrido[4,3-d]pyrimidin-4-yl)-1-((Z)-2-fluoro-3-(thiazol-2-yl)acryloyl)piperazin-2-yl)acetonitrile]	430
C#Cc1c(F)ccc2cc(O)cc(-c3ncc4c(N5C[C@H]6CC[C@@H](C5)N6C(=O)/C(F)=C/c5cc(C)ccn5)nc(OC[C@@]56CCCN5C[C@H](F)C6)nc4c3F)c12 [Compound 3, (Z)-1-((1R, 5S)-3-(7-(8-ethynyl-7-fluoro-3-hydroxynaphthalen-1-yl)-8-fluoro-2-(((2R, 7aS)-2-fluorotetrahydro-1H-pyrrolizin-7a(5H)-yl)methoxy)pyrido[4,3-d]pyrimidin-4-yl)-3,8-diazabicyclo[3.2.1]octan-8-yl)-2-fluoro-3-(4-methylpyridin-2-yl)prop-2-en-1-one]	19
C#Cc1c(F)ccc2cc(O)cc(-c3ncc4c(N5C[C@H]6CC[C@@H](C5)N6C(=O)/C(F)=C/c5ccc(C)cn5)nc(OC[C@@]56CCCN5C[C@H](F)C6)nc4c3F)c12 [Compound 6, (Z)-1-((1R, 5S)-3-(7-(8-ethynyl-7-fluoro-3-hydroxynaphthalen-1-yl)-8-fluoro-2-(((2R, 7aS)-2-fluorotetrahydro-1H-pyrrolizin-7a(5H)-yl)methoxy)pyrido[4,3-d]pyrimidin-4-yl)-3,8-diazabicyclo[3.2.1]octan-8-yl)-2-fluoro-3-(5-methylpyridin-2-yl)prop-2-en-1-one]	45
C#Cc1ccc(F)c2cccc(-c3ncc4c(N5CCN(C(=O)/C(F)=C/c6ncccn6)CC5)nc(OC[C@@]56CCCN5C[C@H](F)C6)nc4c3F)c12 [Compound 97, (Z)-1-(4-(7-(8-ethynyl-5-fluoronaphthalen-1-yl)-8-fluoro-2-(((2R, 7aS)-2-fluorotetrahydro-1H-pyrrolizin-7a(5H)-yl)methoxy)pyrido[4,3-d]pyrimidin-4-yl)piperazin-1-yl)-2-fluoro-3-(pyrimidin-2-yl)prop-2-en-1-one]	550
C#Cc1cccc2cccc(-c3ncc4c(N(C)C5CCN(C(=O)/C(F)=C/c6nccs6)C5C)nc(OC[C@@]56CCCN5C[C@H](F)C6)nc4c3F)c12 (single isomer, unassigned) [Example 73 trans isomer 2]	5700
N#CC[C@H]1CN(c2nc(OC[C@@]34CCCN3C[C@H](F)C4)nc3c(F)c(-c4cc(O)ccc4C(F)(F)F)ncc23)CCN1C(=O)/C(F)=C/c1ccccn1 [Compound 94, 2-((S)-4-(8-fluoro-2-(((2R, 7aS)-2-fluorotetrahydro-1H-pyrrolizin-7a(5H)-yl)methoxy)-7-(5-hydroxy-2-(trifluoromethyl)phenyl)pyrido[4,3-d]pyrimidin-4-yl)-1-((Z)-2-fluoro-3-(pyridin-2-yl)acryloyl)piperazin-2-yl)acetonitrile]	34
C#Cc1cccc2cccc(-c3ncc4c(N5CC[C@@H]6CN(C(=O)/C(F)=C/c7ccccn7)C[C@@H]65)nc(OC[C@@]56CCCN5C[C@H](F)C6)nc4c3F)c12 [Compound 85, (Z)-1-((3aR, 6aR)-1-(7-(8-ethynylnaphthalen-1-yl)-8-fluoro-2-(((2R, 7aS)-2-fluorotetrahydro-1H-pyrrolizin-7a(5H)-yl)methoxy)pyrido[4,3-d]pyrimidin-4-yl)hexahydropyrrolo[3,4-b]pyrrol-5(1H)-yl)-2-fluoro-3-(pyridin-2-yl)prop-2-en-1-one]	110
CCc1cccc2cccc(-c3ncc4c(N5CCN(C(=O)/C(F)=C/c6nccs6)[C@@H](CC#N)C5)nc(OC[C@@H]5CCCN5C)nc4c3F)c12 [Example 24, 2-((S)-4-(7-(8-ethylnaphthalen-1-yl)-8-fluoro-2-(((S)-1-methylpyrrolidin-2-yl)methoxy)pyrido[4,3-d]pyrimidin-4-yl)-1-((Z)-2-fluoro-3-(thiazol-2-yl)acryloyl)piperazin-2-yl)acetonitrile]	110
N#CC[C@H]1CN(c2nc(OC[C@@]34CCCN3C[C@H](F)C4)nc3c(F)c(-c4csc5ccccc45)ncc23)CCN1C(=O)/C(F)=C/c1ccccn1 [Example 35, 2-((S)-4-(7-(benzo[b]thiophen-3-yl)-8-fluoro-2-(((2R, 7aS)-2-fluorotetrahydro-1H-pyrrolizin-7a(5H)-yl)methoxy)pyrido[4,3-d]pyrimidin-4-yl)-1-((Z)-2-fluoro-3-(pyridin-2-yl)acryloyl)piperazin-2-yl)acetonitrile]	430
C#Cc1cccc2cccc(-c3ncc4c(N5CCC6C5CCN6C(=O)/C(F)=C/c5ccccn5)nc(OC[C@@]56CCCN5C[C@H](F)C6)nc4c3F)c12 (single isomer, unassigned) [Compound 107]	5600
C#Cc1cccc2cccc(-c3ncc4c(N5CC6(CCN(C(=O)/C(F)=C/c7ccccn7)CC6)C5)nc(OC[C@@]56CCCN5C[C@H](F)C6)nc4c3F)c12 [Compound 91, (Z)-1-(2-(7-(8-ethynylnaphthalen-1-yl)-8-fluoro-2-(((2R, 7aS)-2-fluorotetrahydro-1H-pyrrolizin-7a(5H)-yl)methoxy)pyrido[4,3-d]pyrimidin-4-yl)-2,7-diazaspiro[3.5]nonan-7-yl)-2-fluoro-3-(pyridin-2-yl)prop-2-en-1-one]	5000
CN1CCC[C@H]1COc1nc(N2CCN(C(=O)/C(F)=C/c3nccs3)[C@@H](CC#N)C2)c2cnc(-c3cccc4ccc(F)cc34)c(F)c2n1 [Example 37, 2-((S)-1-((Z)-2-fluoro-3-(thiazol-2-yl)acryloyl)-4-(8-fluoro-7-(7-fluoronaphthalen-1-yl)-2-(((S)-1-methylpyrrolidin-2-yl)methoxy)pyrido[4,3-d]pyrimidin-4-yl)piperazin-2-yl)acetonitrile]	130
C#Cc1c(F)ccc2cc(O)cc(-c3ncc4c(N5C[C@H]6CC[C@@H](C5)N6C(=O)/C(F)=C/c5cncc(C)n5)nc(OC[C@@]56CCCN5C[C@H](F)C6)nc4c3F)c12 [Example 26, (Z)-1-((1R, 5S)-3-(7-(8-ethynyl-7-fluoro-3-hydroxynaphthalen-1-yl)-8-fluoro-2-(((2R, 7aS)-2-fluorotetrahydro-1H-pyrrolizin-7a(5H)-yl)methoxy)pyrido[4,3-d]pyrimidin-4-yl)-3,8-diazabicyclo[3.2.1]octan-8-yl)-2-fluoro-3-(6-methylpyrazin-2-yl)prop-2-en-1-one]	170
C#Cc1c(F)ccc2cccc(-c3ncc4c(N5CCN(C(=O)/C(F)=C/c6ccccn6)C[C@@H]5C)nc(OC[C@@]56CCCN5C[C@H](F)C6)nc4c3F)c12 [Compound 89, (Z)-1-((S)-4-(7-(8-ethynyl-7-fluoronaphthalen-1-yl)-8-fluoro-2-(((2R, 7aS)-2-fluorotetrahydro-1H-pyrrolizin-7a(5H)-yl)methoxy)pyrido[4,3-d]pyrimidin-4-yl)-3-methylpiperazin-1-yl)-2-fluoro-3-(pyridin-2-yl)prop-2-en-1-one]	37
N#CC[C@H]1CN(c2nc(OC[C@@]34CCCN3C[C@H](F)C4)nc3c(F)c(-c4ccccc4C4CCC4)ncc23)CCN1C(=O)/C(F)=C/c1ccccn1 [Compound 81, 2-((2S)-4-(7-(2-cyclobutylphenyl)-8-fluoro-2-(((2R, 7aS)-2-fluorotetrahydro-1H-pyrrolizin-7a(5H)-yl)methoxy)pyrido[4,3-d]pyrimidin-4-yl)-1-((Z)-2-fluoro-3-(pyridin-2-yl)acryloyl)piperazin-2-yl)acetonitrile]	57
Cn1ncc2cccc(-c3ncc4c(N5CCN(C(=O)/C(F)=C/c6ccccn6)CC5)nc(OC[C@@]56CCCN5C[C@H](F)C6)nc4c3F)c21 [Example 38, (Z)-2-fluoro-1-(4-(8-fluoro-2-(((2R, 7aS)-2-fluorotetrahydro-1H-pyrrolizin-7a(5H)-yl)methoxy)-7-(1-methyl-1H-indazol-7-yl)pyrido[4,3-d]pyrimidin-4-yl)piperazin-1-yl)-3-(pyridin-2-yl)prop-2-en-1-one]	4700
C#Cc1c(F)ccc2cc(O)cc(-c3ncc4c(N5C[C@H]6CC[C@@H](C5)N6C(=O)/C(F)=C/c5ncco5)nc(OC[C@@]56CCCN5C[C@H](F)C6)nc4c3F)c12 [Compound 4, (Z)-1-((1R, 5S)-3-(7-(8-ethynyl-7-fluoro-3-hydroxynaphthalen-1-yl)-8-fluoro-2-(((2R, 7aS)-2-fluorotetrahydro-1H-pyrrolizin-7a(5H)-yl)methoxy)pyrido[4,3-d]pyrimidin-4-yl)-3,8-diazabicyclo[3.2.1]octan-8-yl)-2-fluoro-3-(oxazol-2-yl)prop-2-en-1-one]	260
